Reference: patent US6268391A, “Benzylidene-1,3-dihydro-indol-2-one derivatives a receptor tyrosine kinase inhibitors, particularly of Raf kinases” (Glaxo Wellcome Inc., priority 1997, dated 2001)

Biological target: T1, Human cRaf1 (Homo sapiens, UniProt P04049)
T1 construct: poly-histidine (C); made in house
Assay: Raf kinase assay (cRaf1 assay / Raf/MEK cascade assay)
Type: biochemical
Conditions: Table 3; read-out: Raf Kinase activity
Experimental: The potency of cRaf1 dependent kinase activity was measured using one of two assay formats. The first measured cRaf1 catalyzed phosphorylation of MEK1, the natural substrate for cRaf1. This assay is referred to as the cRaf1 assay. The second measured the ability of cRaf1 to phosphorylate and activate MEK1. This assay is referred to as the Raf/MEK cascade assay.
Human cRaf1 tagged with poly histidine at the carboxyterminus was expressed in a baculovirus expression system and purfied by Ni chelate affinity chromatography. Human MEK1 was expressed in E. coli as a fusion protein with Glutathione-S-transferase, and purified by glutathione sepharose affinity chromatography. […] Reactions contained cRaf1 (20 nM), MEK1 (100-500 nM), [γ-^32 P]ATP ([…]), Mg^2+ (10 mM), MOPS (50 mM, pH 7.5). Reactions were incubated at room temperature for periods of time ranging from 20-120 minutes. Inhibitors were diluted in 100% DMSO prior to addition to the assay. Reactions were terminated with an equal volume of 0.5% phosphoric acid. MEK1 phosphorylation was detected by scintillation counting following collection of protein onto phosphocellulose filters.
Human cRaf1 and MEK1 were purified as described above. A peptide substrate phosphorylated by MEK1 was used as the final phosphoryl group acceptor. […] Assay conditions were the same as those described above except for the following modifications. Reactions contained cRaf1 (1-5 nM), MEK1 (60 nM), and peptide ([…]).

Compound | IC50 [nM]
2,6-Dibromo-4-[(5-glycoloyl-2-oxo-1,2-dihydro-3H-indol-3-ylidene)methyl]phenyl ethyl carbonate [Example 155] | 10000 to 100000
3-(3,5-Dibromo-4-hydroxy-benzylidene)-5-(3-methylimidazol-1-yl-acetyl)-1,3-dihydro-indol-2-one [Example 71] | < 1000
3-(3-Bromo-4-hydroxy-5-ethoxy-benzylidene)-5-(2-dimethylamino-acetyl)-1,3-dihydro-indol-2-one [Example 111] | < 1000
5-{2-[N-Benzyl-N-(2-hydroxy-acetyl)-amino]-ethyl}-3-(3,5-dibromo-4-hydroxy-benzylidene)-1,3-dihydro-indol-2-one [Example 78] | < 1000
CCOc1cc(C=C2C(=O)Nc3ccc(-c4csc(C)n4)cc32)cc(Br)c1O [Example 3, 3-(3-Bromo-5-ethoxy-4-hydroxy-benzylidene)-5-(2-methyl-thiazol-4-yl)-1,3-dihydro-indol-2-one] | < 1000
Cc1nc(-c2ccc3c(c2)C(=Cc2cc(Cl)c(O)c(Cl)c2)C(=O)N3)cs1 [Example 4] | < 1000
CC(C)CC(=O)c1ccc2c(c1)C(=Cc1cc(Br)c(O)c(Br)c1)C(=O)N2 [Example 5] | < 1000
O=C1Nc2ccc(C(=O)c3ccccc3)cc2C1=Cc1cc(Br)c(O)c(Br)c1 [Example 6, 5-Benzoyl-3-(3,5-dibromo-4-hydroxy-benzylidene)-1,3 dihydro-indol-2-one] | < 1000
O=C1Nc2ccc(C(=O)c3ccccc3)cc2C1=Cc1cc(Cl)c(O)c(Cl)c1 [Example 7, 5-Benzoyl-3-(3,5-dichloro-4-hydroxy-benzylidene)-1,3-dihydro-indol-2-one] | < 1000
CC(C)CC(=O)c1ccc2c(c1)C(=Cc1cc(Cl)c(O)c(Cl)c1)C(=O)N2 [Example 9] | < 1000
CCOc1cc(C=C2C(=O)Nc3ccc(C(=O)CC(C)C)cc32)cc(Br)c1O [Example 10, 3-(3-Bromo-5-ethoxy-4-hydroxy-benzylidene)-5-(3-methyl-butanoyl)-1,3-dihydro-indol-2-one] | < 1000
O=C1Nc2ccc(C(=O)c3cccnc3)cc2C1=Cc1cc(Br)c(O)c(Br)c1 [Example 11] | < 1000
O=C1Nc2ccc(C(=O)c3cccnc3)cc2C1=Cc1cc(Cl)c(O)c(Cl)c1 [Example 12, 3-(3,5-Dichloro-4-hydroxy-benzylidiene)-5-(pyridine-3-carbonyl)-1,3-dihydro-indol-2-one] | < 1000
O=C1Nc2ccc(C(=O)c3ccncc3)cc2C1=Cc1cc(Br)c(O)c(Br)c1 [Example 13, 3-(3,5-Dibromo-4-hydroxy-benzylidene)-5-(pyridine-4-carbonyl)-1,3-dihydro-indol-2-one] | < 1000
CCOc1cc(C=C2C(=O)Nc3ccc(C(=O)c4ccncc4)cc32)cc(Br)c1O [Example 14, 3-(3-Bromo-5-ethoxy-4-hydroxy-benzylidene)-5-(pyridine-4-carbonyl)-1,3-dihydro-indol-2-one] | < 1000
O=C1Nc2ccc(C(=O)c3ccncc3)cc2C1=Cc1cc(Cl)c(O)c(Cl)c1 [Example 15, 3-(3,5-Dichloro-4-hydroxy-benzylidene)-5-(pyridine-4-carbonyl)-1,3-dihydro-indol-2-one] | < 1000
CCOc1cc(C=C2C(=O)Nc3ccc(C(=O)c4cccnc4)cc32)cc(Br)c1O [Example 16, 3-(3-Bromo-5-ethoxy-4-hydroxy-benzylidene)-5-(pyridine-3-carbonyl)-1,3-dihydro-indol-2-one] | < 1000
O=C1Nc2ccc(-c3cnco3)cc2C1=Cc1cc(Cl)c(O)c(Cl)c1 [Example 17] | < 1000
O=C1Nc2ccc(-c3cnco3)cc2C1=Cc1cc(Br)c(O)c(Br)c1 [Example 18, 3-(3,4-Dibromo-4-hydroxy-benzylidene)-5-(oxazol-5-yl)-1,3-dihydro-indol-2-one] | < 1000
CCc1nc(-c2ccc3c(c2)C(=Cc2cc(Br)c(O)c(Br)c2)C(=O)N3)cs1 [Example 19, 3-(3,5-Dibromo-4-hydroxy-benzylidene)-5-(2-ethyl-thiazol-4-yl)-1,3-dihydro-indol-2-one] | < 1000
COC(=O)c1ccc2c(c1)C(=Cc1cc(Br)c(O)c(Br)c1)C(=O)N2 [Example 20, 3-(3,5-Dibromo-4-hydroxy-benzylidene)-2-oxo-2,3-dihydro-1H-indol-5-carboxylic acid methyl ester] | < 1000

Compound | IC50 [nM]
O=C1Nc2ccc(C(=O)c3ccco3)cc2C1=Cc1cc(Br)c(O)c(Br)c1 [Example 21] | < 1000
O=C1Nc2ccc(C(=O)c3ccco3)cc2C1=Cc1cc(Cl)c(O)c(Cl)c1 [Example 22] | < 1000
CCOc1cc(C=C2C(=O)Nc3ccc(C(=O)c4ccco4)cc32)cc(Br)c1O [Example 23] | < 1000
O=C1Nc2ccc(C(=O)C3CC3)cc2C1=Cc1cc(Br)c(O)c(Br)c1 [Example 24, 5-Cyclopropanecarbonyl-3-(3,5-dibromo-4-hydroxy-benzylidene)-1,3-dihydro-indol-2-one] | < 1000
O=C1Nc2ccc(C(=O)C3CCCC3)cc2C1=Cc1cc(Br)c(O)c(Br)c1 [Example 26, 5-Cyclopentanecarbonyl-3-(3,5-dibromo-4-hydroxy-benzylidene)-1,3-dihydro-indol-2-one] | < 1000
COC(=O)c1ccc2c(c1)C(=Cc1cc(Cl)c(O)c(Cl)c1)C(=O)N2 [Example 27, 3-(3,5-Dichloro-4-hydroxy-benzylidene)-2-oxo-2,3-dihydro-1H-indole-5-carboxylic acid methyl ester] | < 1000
O=C1Nc2ccccc2C1=Cc1cc(Br)c(O)c(Br)c1 [Example 28, 3-(3,5-Dibromo-4-hydroxy-benzylidene)-1,3-dihydro-indol-2-one] | 1000 to 10000
O=C1Nc2ccc(C(=O)c3cccs3)cc2C1=Cc1cc(Br)c(O)c(Br)c1 [Example 29, 3-(3,5-Dibromo-4-hydroxy-benzylidene)-5-(thiophene-2-carbonyl)-1,3-dihydro-indol-2-one] | < 1000
Nc1nc(-c2ccc3c(c2)C(=Cc2cc(Br)c(O)c(Br)c2)C(=O)N3)cs1 [Example 30, 5-(2-Amino-thiazol-4-yl)-3-(3,5-dibromo-4-hydroxy-benzylidene)-1,3-dihydro-indol-2-one] | < 1000
O=C1Nc2ccc(-c3cn4ccccc4n3)cc2C1=Cc1cc(Br)c(O)c(Br)c1 [Example 31, 3-(3,5-Dibromo-4-hydroxy-benzylidene)-5-(imidazo[1,2a]pyridin-2-yl)-1,3-dihydro-indol-2-one] | < 1000
CCC(=O)c1ccc2c(c1)C(=Cc1cc(Br)c(O)c(Br)c1)C(=O)N2 [Example 32, 3-(3,5-Dibromo-4-hydroxy-benzylidene)-5-propionyl-1,3-dihydro-indol-2-one] | < 1000
NS(=O)(=O)c1ccc2c(c1)C(=Cc1cc(Br)c(O)c(Br)c1)C(=O)N2 [Example 33, 3-(3,5-Dibromo-4-hydroxy-benzylidene)-2-oxo-2,3-dihydro-1H-indole-5-sulfonic acid amide] | < 1000
CCN(CC)S(=O)(=O)c1ccc2c(c1)C(=Cc1cc(Br)c(O)c(Br)c1)C(=O)N2 [Example 34, 3-(3,5-Dibromo-4-hydroxy-benzylidene)-2-oxo-2,3 dihydro-1H-indole-5-sulfonic acid N,N-diethylamide] | < 1000
O=C1Nc2ccc(S(=O)(=O)N3CCCC3)cc2C1=Cc1cc(Br)c(O)c(Br)c1 [Example 35, 3-(3,5-Dibromo-4-hydroxy-benzylidene)-5-(pyrrolidine-1-sulfonyl)-1,3-dihydro-indol-2-one] | < 1000
CN(C)CCN(C)S(=O)(=O)c1ccc2c(c1)C(=Cc1cc(Br)c(O)c(Br)c1)C(=O)N2 [Example 36, 3-(3,5-Dibromo-4-hydroxy-benzylidene)-2-oxo-2,3-dihydro-1H-indol-5-sulfonic acid (N-2-dimethylamino-ethyl)-N-methyl-amide] | < 1000
O=C1Nc2ccc(C(=O)c3ccno3)cc2C1=Cc1cc(Br)c(O)c(Br)c1 [Example 37, 3-(3,5-Dibromo-4-hydroxy-benzylidene)-5-(isoxazole-5-carbonyl)-1,3-dihydro-indol-2-one] | < 1000
O=C1Nc2ccc(Cl)cc2C1=Cc1cc(Br)c(O)c(Br)c1 [Example 38, 5-Chloro-3-(3,5-dibromo-4-hydroxy-benzylidene)-1,3-dihydro-indol-2-one] | < 1000
O=C1Nc2ccc(Cl)cc2C1=Cc1cc(Cl)c(O)c(Cl)c1 [Example 39, 5-Chloro-3-(3,5-dichloro-4-hydroxy-benzylidene)-1,3-dihydro-indol-2-one] | < 1000
O=C1Nc2ccc(OC(F)(F)F)cc2C1=Cc1cc(Br)c(O)c(Br)c1 [Example 40, 3-(3,5-Dibromo-4-hydroxy-benzylidene)-5-trifluoromethoxy-1,3-dihydro-indol-2-one] | < 1000
O=C1Nc2ccc(Br)cc2C1=Cc1cc(Cl)c(O)c(Cl)c1 [Example 41, 5-Bromo-3-(3,5-dichloro-4-hydroxy-benzylidene)-1,3-dihydro-indol-2-one] | < 1000
CCOc1cc(C=C2C(=O)Nc3ccc(I)cc32)cc(Br)c1O [Example 42, 3-(3-Bromo-5-ethoxy-4-hydroxy-benzylidene)-5-iodo-1,3-dihydro-indol-2-one] | < 1000
